These results are taken from article PMC11785791, “Cryo-EM structure of the calcium-sensing receptor complexed with the kokumi substance γ-glutamyl-valyl-glycine” (Scientific Reports, 2025).

The series is classed as physicochemical. The following applies: pH 7.4.

For `N[C@@H](Cc1c[nH]c2ccccc12)C(=O)O` [L-Trp, L-tryptophan], the “Solubility in the assay buffer” value was “low solubility”.
